Test results reported in patent US20250304537A1 (Repare Therapeutics Inc., priority 2022, published 2025).
Read-outs that look alike come from different tables or passages of the source.

Tested on: PKMYT1 (CDK1 pThr14) in FUOV1 cells
Assay: PKMYT1 cell-based activity assay, CDK1 pThr14 AlphaLISA in FUOV1 cells
Conditions: read-out: FUOV-1 CDK1 pThr14 IC50
Protocol: To determine compound IC50 (PKMYT1 cell-based activity assay, CDK1 pThr14 AlphaLISA), FUOV1 cells were plated into a 96-well TC-treated culture plate at 50000 cells/well in a final volume of 100 μL of media. The plates were then allowed to equilibrate in a biological safety cabinet for 30 minutes before being placed in a humidified incubator at 37 C and 5% CO2 overnight. The next day, 2 μL of PKMYT1 inhibitors or DMSO were diluted in 400 μL of warmed culture media in a 96-well block using a Biomek FX liquid handler. Compounds were mixed in media and then 25 μL was dispensed into each well of the 96-well cell plate. Plates were centrifuged at 300 g for 10 seconds and then placed in the incubator for 2 hours. After the 2-hour incubation with compound, media was removed via aspiration using a multichannel pipette. 30 μL of 1× AlphaLISA lysis buffer (Perkin Elmer) supplemented with protease and phosphatase inhibitors as well as 1 mM PMSF, was added to each well. Plates were rotated at 500 g for 20 minutes to facilitate lysis. Plates were then sealed with aluminum foil and frozen at −80° C. for at least 1 hour. Lysates were thawed at 37° C. for 10 minutes, then 10 μL of each lysate was transferred in duplicate to a white 384-well assay plate. Antibody mixture was prepared in 1× AlphaLISA assay buffer (Perkin Elmer) containing antibodies (5 nM final concentration for rabbit pThr14-CDK1 from Abcam #ab58509 and mouse total CDK1 from ThermoFisher Scientific #33-1800). 5 μL of antibody mixture was added to each well of the assay plate. The assay plate was sealed and stored at 4° C. overnight. The next day, AlphaLISA bead mixture (Perkin Elmer) was prepared in 1× AlphaLISA assay buffer. Anti-rabbit IgG Acceptor (Perkin Elmer #AL104C) and anti-mouse IgG Donor beads (Perkin Elmer #AS104D) were prepared to a concentration of 80 μg/ml in assay buffer. 5 μL of bead mixture was added to each well of the assay plate (20 μg/ml final concentration for each bead). The plate was protected from light and incubated for 2 hours at room temperature. After a 2-hour incubation with beads, the plate was read using the Perkin Elmer EnVision Multimode plate reader with excitation at 680 nm and emission at 615 nm.

Compound `COCCNc1ccc2oc3c(C(N)=O)c(N)c(-c4c(C)ccc5[nH]ncc45)cc3c2n1` [Compound 558, 7-amino-2-((2-methoxyethyl)amino)-8-(5-methyl-1H-indazol-4-yl)benzofuro[3,2-b]pyridine-6-carboxamide] has an IC50 (2 h, 2 h compound incubation) of 95 nM.
`Cc1ccc2[nH]ncc2c1-c1nc(-c2cccnc2NCCN2CCOCC2)nc(C(N)=O)c1N` [Compound 703] showed an IC50 (2 h, 2 h compound incubation) of 680 nM.
`Cc1ccc2[nH]ncc2c1-c1nc(-c2cc(F)cnc2NC2CCN(C)CC2)nc(C(N)=O)c1N` [Compound 838] gave an IC50 (2 h, 2 hours with compound) of 55 nM.
For `Cc1ccc2[nH]ncc2c1-c1nc(-c2ccc(Cl)cc2Nc2ncccn2)nc(C(N)=O)c1N` [Compound 654], the IC50 (2 h, 2 h compound incubation) was 77 nM.
`Cc1ccc2[nH]ncc2c1-c1nc(-c2cc(F)c(F)cc2NC(=O)C(C)(C)C)nc(C(N)=O)c1N` [Compound 487] was tested, and the IC50 (2 h, 2 h compound incubation) was 68 nM.
`Cc1ccc2[nH]ncc2c1-c1nc(-c2ccc(F)cc2Nc2nccs2)nc(C(N)=O)c1N` [Compound 581] gave an IC50 (2 h, 2 h compound incubation) of 40 nM.
Compound `Cc1ccc2[nH]ncc2c1-c1nc(-c2cccnc2NC2CC(F)(F)C2)nc(C(N)=O)c1N` [Compound 675] has an IC50 (2 h, 2 h compound incubation) of 53 nM.
`[2H]C([2H])([2H])c1ccc2[nH]ncc2c1-c1nc(-c2ccc(C(F)F)nc2Nc2nc(C)ncc2F)nc(C(N)=O)c1N` [Compound 973] was tested, and the IC50 (2 h, 2 hours with compound) was 53 nM.
`Cc1ccc2[nH]ncc2c1-c1nc(-c2cccnc2N[C@H]2CCOC[C@@H]2F)nc(C(N)=O)c1N` [Compound 648] showed an IC50 (2 h, 2 h compound incubation) of 51 nM.
Compound `Cc1ccc2[nH]ncc2c1-c1nc(-c2cc(F)cnc2N[C@@H]2C[C@H]3CC[C@@H]2O3)nc(C(N)=O)c1N` [Compound 836] has an IC50 (2 hours with compound) of 15 nM.
`N#Cc1cccnc1Nc1nc(F)ccc1-c1nc(C(N)=O)c(N)c(-c2c(F)ccc3[nH]ncc23)n1` [Compound 969] gave an IC50 (2 h, 2 hours with compound) of 16 nM.
In the case of `COCCOc1ccc2oc3c(C(N)=O)c(N)c(-c4c(C)ccc5[nH]ncc45)cc3c2n1` [Compound 556], the IC50 (2 h, 2 h compound incubation) is reported as 132 nM.
`Cc1ccc2[nH]ncc2c1-c1nc(-c2ccc(Cl)nc2Nc2nccnc2Cl)nc(C(N)=O)c1N` [Compound 770] was tested, and the IC50 (2 h, 2 h compound incubation) was 17 nM.
Compound `Cc1cc(C)nc(Nc2cc(F)ccc2-c2nc(C(N)=O)c(N)c(-c3c(C)ccc4[nH]ncc34)n2)n1` [Compound 567] has an IC50 (2 h, 2 h compound incubation) of 389 nM.
For `Cc1ccc2[nH]ncc2c1-c1nc(-c2ccc(C#N)nc2NC2CC(F)(F)C2)nc(C(N)=O)c1N` [Compound 809], the IC50 (2 h, 2 hours with compound) was 272 nM.
In the case of `Cc1ccc2[nH]ncc2c1-c1nc(-c2ccc(F)cc2N[C@H]2C[C@@H](O)C2)nc(C(N)=O)c1N` [Compound 860], the IC50 (2 h, 2 hours with compound) is reported as 232 nM.
`[2H]C([2H])([2H])c1ccc2[nH]ncc2c1-c1nc(-c2ccc(C(F)F)nc2Nc2ncccc2F)nc(C(N)=O)c1N` [Compound 959] gave an IC50 (2 h, 2 hours with compound) of 8 nM.
Work on `Cc1ccc2[nH]ncc2c1-c1nc(-c2cc(F)cnc2N[C@@H]2CC[C@H](O)C2)nc(C(N)=O)c1N` [Compound 833] yielded an IC50 (2 h, 2 hours with compound) of 47 nM.
For `Cc1ccc(-c2nc(C(N)=O)c(N)c(-c3c(C)ccc4[nH]ncc34)n2)c(Nc2nc(C)cnc2C)n1` [Compound 689], the IC50 (2 h, 2 h compound incubation) was 6 nM.
In the case of `COc1ccnc(Nc2cc(F)ccc2-c2nc(C(N)=O)c(N)c(-c3c(C)ccc4[nH]ncc34)n2)n1` [Compound 570], the IC50 (2 h, 2 h compound incubation) is reported as 111 nM.
For `Cc1ccc(-c2nc(C(N)=O)c(N)c(-c3c(C)ccc4[nH]ncc34)n2)c(N[C@H]2C[C@@](C)(O)C2)n1` [Compound 956], the IC50 (2 h, 2 hours with compound) was 92 nM.
`Cc1ccc(Cl)nc1Nc1nc(F)ccc1-c1nc(C(N)=O)c(N)c(-c2c(C)ccc3[nH]ncc23)n1` [Compound 943] was tested, and the IC50 (2 h, 2 hours with compound) was 22 nM.
In the case of `Cc1ccc2[nH]ncc2c1-c1nc(-c2cccnc2Nc2ncccc2CC#N)nc(C(N)=O)c1N` [Compound 741], the IC50 (2 h, 2 h compound incubation) is reported as 155 nM.
`Cc1csc(Nc2cc(F)ccc2-c2nc(C(N)=O)c(N)c(-c3c(C)ccc4[nH]ncc34)n2)n1` [Compound 588] gave an IC50 (2 h, 2 h compound incubation) of 45 nM.
In the case of `CCc1ccccc1-c1nc(C(N)=O)c(N)c(-c2c(C)ccc3[nH]ncc23)n1` [Compound 778], the IC50 (2 h, 2 h compound incubation) is reported as 1260 nM.
`Cc1ccc2[nH]ncc2c1-c1nc(-c2cc(F)cnc2N[C@@H](C)C2CC2)nc(C(N)=O)c1N` [Compound 710] gave an IC50 (2 h, 2 h compound incubation) of 19 nM.
Work on `Cc1ccc2[nH]ncc2c1-c1nc(-c2ccc(Cl)nc2Nc2nccnc2F)nc(C(N)=O)c1N` [Compound 825] yielded an IC50 (2 h, 2 hours with compound) of 9 nM.
